The conditions of series [1]: human cohort exposed to PCBs; calculated; ref Quinete et al., 2017; cited from earlier work.
For series [2] the following is noted: rats, 0.6 mg/kg intravenous injection; ref Grimm et al., 2015a; cited from earlier work.
Series [3] deals with human hepatic microsomal sulfatase. The series can be described thus: Human hepatic microsomal sulfatase assay. In kind it is in vitro ADME. Conditions: relative to DHEA sulfate.

The text below walks through data of publication PMC8595862 (Environmental toxicology and pharmacology, 2021).

Counter-ions that a name gives are not always drawn.

With `Clc1ccc(-c2ccc(Cl)cc2Cl)cc1` [PCB 28, 2,4,4’-trichlorobiphenyl], in series [1], the Plasma half-life is listed as 4.32 years.

Take `O=S(=O)(O)Oc1ccc(-c2cccc(Cl)c2)cc1Cl` [4-PCB 11 Sulfate, 3,3’-dichloro-4-biphenylsulfate]: in series [2], the “Tissue uptake, metabolism and urinary excretion” value is “taken up by tissues and further metabolized, with only a small percentage excreted in the urine”.

On to `O=S(=O)(O)Oc1cc(Cl)c(-c2cc(Cl)ccc2Cl)cc1Cl` [4-PCB 52 Sulfate, 2,2’,5,5’-tetrachloro-4-biphenylsulfate], for which, in series [3], the “Catalytic efficiency compared with DHEA sulfate” value is reported as “over 20 times”.

`Oc1ccc(-c2ccc(Cl)cc2Cl)cc1Cl` [4’-OH-PCB 25, 2,3’,4-trichloro-4’-hydroxybiphenyl]: in series [1], the Plasma half-life was 6.46 years.

On to `O=S(=O)(O)Oc1ccc(-c2ccc(Cl)c(Cl)c2)cc1` [4’-PCB 12 Sulfate, 3,4-dichloro-4’-biphenylsulfate], for which the “Catalytic efficiency compared with DHEA sulfate” value in series [3] was “the same as DHEA sulfate”.
